Reference: ChEMBL document CHEMBL4627375, “Monovalent protein-degraders - Insights and future perspectives” (Bioorg Med Chem Lett, 2020)

What was measured:
[1] = biological target: Maternal embryonic leucine zipper kinase (Homo sapiens, UniProt Q14680); test: Inhibition of MELK (unknown origin)
[2] = biological target: T1, Protein phosphatase 1 regulatory subunit 15B (Homo sapiens, UniProt Q5SWA1); test: Inhibition of amino-terminal MBP-tagged/carboxy-terminal His6-tagged human PPP1R15B (325 to 626 residues)
T1 sequence (Q5SWA1 whole entry): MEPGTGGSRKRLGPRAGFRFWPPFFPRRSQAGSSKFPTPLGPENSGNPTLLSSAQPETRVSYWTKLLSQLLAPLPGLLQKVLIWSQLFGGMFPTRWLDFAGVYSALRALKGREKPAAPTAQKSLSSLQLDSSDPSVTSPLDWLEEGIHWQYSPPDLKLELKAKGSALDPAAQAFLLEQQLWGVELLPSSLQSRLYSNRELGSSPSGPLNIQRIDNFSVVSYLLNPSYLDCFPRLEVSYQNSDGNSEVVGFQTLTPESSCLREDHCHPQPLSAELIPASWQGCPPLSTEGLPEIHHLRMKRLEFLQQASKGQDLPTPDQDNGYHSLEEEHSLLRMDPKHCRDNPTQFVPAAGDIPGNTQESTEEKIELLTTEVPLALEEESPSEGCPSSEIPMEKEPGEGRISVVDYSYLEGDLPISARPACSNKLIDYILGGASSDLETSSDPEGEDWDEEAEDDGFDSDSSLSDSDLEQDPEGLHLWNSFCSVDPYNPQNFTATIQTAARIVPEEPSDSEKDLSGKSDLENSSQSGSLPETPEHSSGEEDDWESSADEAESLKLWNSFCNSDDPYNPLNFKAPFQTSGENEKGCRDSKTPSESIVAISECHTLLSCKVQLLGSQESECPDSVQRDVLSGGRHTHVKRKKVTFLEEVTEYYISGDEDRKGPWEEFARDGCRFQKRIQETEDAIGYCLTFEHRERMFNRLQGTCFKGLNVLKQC

[3] = biological target: Protein phosphatase 1 regulatory subunit 15A (Homo sapiens, UniProt O75807); test: Inhibition of amino-terminal MBP-tagged/carboxy-terminal His6-tagged human PPP1R15A (325 to 626 residues)
Chain of Protein phosphatase 1 regulatory subunit 15A (O75807 whole entry, the tested form may be a part): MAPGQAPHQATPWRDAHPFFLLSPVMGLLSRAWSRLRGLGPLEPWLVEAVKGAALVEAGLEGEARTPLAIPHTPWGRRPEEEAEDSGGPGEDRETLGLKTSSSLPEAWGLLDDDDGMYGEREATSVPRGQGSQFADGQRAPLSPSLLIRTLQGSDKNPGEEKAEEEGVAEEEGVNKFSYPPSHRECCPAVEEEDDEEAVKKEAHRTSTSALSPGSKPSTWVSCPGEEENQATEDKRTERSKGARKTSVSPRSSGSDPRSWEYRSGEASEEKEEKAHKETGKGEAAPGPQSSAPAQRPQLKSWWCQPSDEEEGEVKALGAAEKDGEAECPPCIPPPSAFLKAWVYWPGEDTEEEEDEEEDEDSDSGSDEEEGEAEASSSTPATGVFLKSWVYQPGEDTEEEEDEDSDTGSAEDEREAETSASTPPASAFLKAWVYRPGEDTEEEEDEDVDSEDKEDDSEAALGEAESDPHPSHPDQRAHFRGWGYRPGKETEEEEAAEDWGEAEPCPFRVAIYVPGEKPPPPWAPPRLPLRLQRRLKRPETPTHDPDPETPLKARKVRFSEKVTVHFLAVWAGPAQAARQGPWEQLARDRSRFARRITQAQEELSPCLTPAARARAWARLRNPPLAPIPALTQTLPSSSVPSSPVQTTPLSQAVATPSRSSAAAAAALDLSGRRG

[4] = organism: Homo sapiens; test: Selectivity ratio, ratio of IC50 for HDAC6 (unknown origin) to Class 1 HDAC (unknown origin)
[5] = biological target: T2, Protein deacetylase HDAC6 (Homo sapiens, UniProt Q9UBN7); test: Inhibition of HDAC6 (unknown origin)
T2 sequence (Q9UBN7 whole entry): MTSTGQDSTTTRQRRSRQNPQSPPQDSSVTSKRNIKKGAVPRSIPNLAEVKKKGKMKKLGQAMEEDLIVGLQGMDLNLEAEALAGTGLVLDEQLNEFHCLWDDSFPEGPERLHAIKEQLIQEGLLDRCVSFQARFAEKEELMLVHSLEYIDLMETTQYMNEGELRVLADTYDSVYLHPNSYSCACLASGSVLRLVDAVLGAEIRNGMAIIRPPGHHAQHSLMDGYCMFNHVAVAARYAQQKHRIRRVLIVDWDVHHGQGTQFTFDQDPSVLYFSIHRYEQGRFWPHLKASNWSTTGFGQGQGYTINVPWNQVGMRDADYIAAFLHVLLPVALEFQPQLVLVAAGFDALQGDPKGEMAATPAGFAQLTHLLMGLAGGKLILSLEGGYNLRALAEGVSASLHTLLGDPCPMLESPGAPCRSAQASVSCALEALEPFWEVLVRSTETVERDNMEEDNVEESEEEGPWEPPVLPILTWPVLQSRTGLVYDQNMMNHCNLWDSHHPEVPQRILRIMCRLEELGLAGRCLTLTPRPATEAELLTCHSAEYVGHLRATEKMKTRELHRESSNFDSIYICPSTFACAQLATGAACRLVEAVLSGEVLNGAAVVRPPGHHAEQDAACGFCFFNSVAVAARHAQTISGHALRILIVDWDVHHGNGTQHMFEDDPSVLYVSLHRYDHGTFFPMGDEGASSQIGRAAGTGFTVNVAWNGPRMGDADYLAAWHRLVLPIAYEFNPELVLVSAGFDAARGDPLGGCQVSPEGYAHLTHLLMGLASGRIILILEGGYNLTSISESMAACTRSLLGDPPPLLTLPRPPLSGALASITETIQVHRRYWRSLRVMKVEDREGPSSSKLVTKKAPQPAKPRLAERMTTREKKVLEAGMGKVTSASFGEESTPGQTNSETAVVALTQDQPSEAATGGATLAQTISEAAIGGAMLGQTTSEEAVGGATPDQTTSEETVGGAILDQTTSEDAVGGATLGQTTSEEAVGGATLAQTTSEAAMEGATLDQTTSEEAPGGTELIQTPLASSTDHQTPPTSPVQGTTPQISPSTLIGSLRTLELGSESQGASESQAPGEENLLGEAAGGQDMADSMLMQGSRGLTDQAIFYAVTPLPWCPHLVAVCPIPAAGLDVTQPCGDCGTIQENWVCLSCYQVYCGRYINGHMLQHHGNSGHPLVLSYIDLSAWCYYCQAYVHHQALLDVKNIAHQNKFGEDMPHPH

Chain of Maternal embryonic leucine zipper kinase (Q14680 whole entry, the tested form may be a part): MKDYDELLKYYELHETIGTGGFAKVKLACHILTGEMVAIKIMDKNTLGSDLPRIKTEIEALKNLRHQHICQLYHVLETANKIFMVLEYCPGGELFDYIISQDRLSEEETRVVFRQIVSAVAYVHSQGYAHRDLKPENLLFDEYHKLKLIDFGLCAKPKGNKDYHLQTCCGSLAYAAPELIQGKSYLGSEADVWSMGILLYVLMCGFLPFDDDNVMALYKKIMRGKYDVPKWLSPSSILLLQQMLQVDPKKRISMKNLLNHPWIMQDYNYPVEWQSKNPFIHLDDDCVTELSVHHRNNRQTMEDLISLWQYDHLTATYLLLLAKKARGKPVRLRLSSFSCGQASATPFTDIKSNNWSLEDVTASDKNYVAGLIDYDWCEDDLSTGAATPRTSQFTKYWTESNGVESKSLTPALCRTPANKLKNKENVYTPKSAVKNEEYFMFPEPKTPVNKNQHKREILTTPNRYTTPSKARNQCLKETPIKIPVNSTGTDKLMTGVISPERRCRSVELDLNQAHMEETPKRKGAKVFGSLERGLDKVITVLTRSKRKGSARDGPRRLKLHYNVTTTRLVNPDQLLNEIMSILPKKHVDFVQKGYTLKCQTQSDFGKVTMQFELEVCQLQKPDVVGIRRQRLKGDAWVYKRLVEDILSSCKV

Structure (SMILES) | IC50 [1] [nM] | IC50 [2] [nM] | IC50 [3] [nM] | Ratio IC50 [4] | IC50 [5] [nM]
COc1ccc(/C=C2\SC(=S)NC2=O)cc1C#C[Si](C)(C)C | 200 to 500 |  |  |  | 
CNC(=O)COc1cc2cc(Nc3nc(N4C[C@H](C)C[C@H](C)C4)ncc3Cl)ccc2n(C)c1=O | 200 to 500 |  |  |  | 
N=C(N)N/N=C/c1cccc(Cl)c1Cl | 200 to 500 | 33 | 977 |  | 
O=C(NO)c1ccc(Cn2c(=O)n(CCc3ccccc3)c(=O)c3ccccc32)cc1 | 200 to 500 |  |  | 200 | 4.7
